Measurements from patent publication US10975056B2 (GlaxoSmithKline Intellectual Property Development Limited, priority 2016, dated 2021).
Structures can show the parent of a compound that is named as a salt. Where two headings read alike, the source gives them in different places.

Legend:
[1] = test system: erythroid progenitor cells (EPCs); assay: Fetal hemoglobin (HbF) ELISA in day 7 erythroid progenitor cells; format: cell-based, human; settings: Homo sapiens, Erythroid progenitor cell, HbF ELISA, day 7 EPCs, 5 days; read-out: EPC ELISA (pEC50 category) (converted);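 also: for fetal hemoglobin induction normalized to vehicle-treated cells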
Outline: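 HbF induction was read by anti-HbF sandwich ELISA (HRP/TMB, OD450) on lysates and normalized to vehicle-treated cells. Cells were day 7 erythroid progenitors derived from human bone marrow CD34+ cells, seeded at 1,000/well with 3 U/mL rhEPO. Compound was given for 5 days at 37 °C at final concentrations […].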

DNMT1 = DNMT1 (Homo sapiens, UniProt P26358); assay: DNMT1 biochemical activity, breaklight assay and/or SPA assay
Chain of DNMT1 (P26358 whole entry, looked up): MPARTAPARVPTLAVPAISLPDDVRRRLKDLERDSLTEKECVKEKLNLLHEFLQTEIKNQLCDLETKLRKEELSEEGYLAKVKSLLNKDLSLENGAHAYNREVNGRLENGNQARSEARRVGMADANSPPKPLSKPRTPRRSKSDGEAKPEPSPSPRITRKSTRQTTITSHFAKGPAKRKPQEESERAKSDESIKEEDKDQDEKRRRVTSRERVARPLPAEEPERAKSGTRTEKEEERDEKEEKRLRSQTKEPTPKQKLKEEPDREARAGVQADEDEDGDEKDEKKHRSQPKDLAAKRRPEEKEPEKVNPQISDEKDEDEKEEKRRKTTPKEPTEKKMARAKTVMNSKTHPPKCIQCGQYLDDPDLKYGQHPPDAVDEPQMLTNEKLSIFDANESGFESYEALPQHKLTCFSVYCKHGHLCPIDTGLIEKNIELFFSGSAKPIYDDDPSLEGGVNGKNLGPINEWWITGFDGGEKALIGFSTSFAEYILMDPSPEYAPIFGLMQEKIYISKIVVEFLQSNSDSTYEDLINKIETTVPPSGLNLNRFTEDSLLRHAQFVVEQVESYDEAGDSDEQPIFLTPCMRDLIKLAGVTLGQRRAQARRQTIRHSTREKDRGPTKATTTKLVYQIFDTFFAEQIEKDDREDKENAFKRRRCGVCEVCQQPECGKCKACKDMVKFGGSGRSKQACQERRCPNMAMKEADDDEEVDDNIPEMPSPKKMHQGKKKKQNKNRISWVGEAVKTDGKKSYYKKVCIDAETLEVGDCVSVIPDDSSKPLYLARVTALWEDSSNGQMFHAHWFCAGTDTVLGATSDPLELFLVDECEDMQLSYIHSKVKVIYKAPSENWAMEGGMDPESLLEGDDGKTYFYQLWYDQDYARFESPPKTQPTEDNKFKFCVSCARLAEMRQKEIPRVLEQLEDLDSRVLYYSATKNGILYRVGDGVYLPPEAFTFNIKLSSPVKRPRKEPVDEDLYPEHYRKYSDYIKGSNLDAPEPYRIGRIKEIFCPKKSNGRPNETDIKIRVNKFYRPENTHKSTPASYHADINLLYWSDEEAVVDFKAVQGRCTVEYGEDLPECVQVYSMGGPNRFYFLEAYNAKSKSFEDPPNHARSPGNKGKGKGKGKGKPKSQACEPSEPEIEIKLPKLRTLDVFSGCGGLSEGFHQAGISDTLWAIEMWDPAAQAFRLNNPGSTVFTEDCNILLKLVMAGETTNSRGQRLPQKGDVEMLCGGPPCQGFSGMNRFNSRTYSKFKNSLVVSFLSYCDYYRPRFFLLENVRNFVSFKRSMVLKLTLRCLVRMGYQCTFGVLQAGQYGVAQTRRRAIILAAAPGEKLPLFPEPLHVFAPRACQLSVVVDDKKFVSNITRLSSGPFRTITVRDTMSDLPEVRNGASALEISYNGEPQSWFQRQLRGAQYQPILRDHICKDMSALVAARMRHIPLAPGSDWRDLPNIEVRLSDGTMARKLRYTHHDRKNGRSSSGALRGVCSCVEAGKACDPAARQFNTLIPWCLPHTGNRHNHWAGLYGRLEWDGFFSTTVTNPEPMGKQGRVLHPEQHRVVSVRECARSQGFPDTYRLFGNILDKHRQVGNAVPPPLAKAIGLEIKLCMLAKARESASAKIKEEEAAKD

[2] = binned activity in either the breaklight or the SPA assay
[3] = breaklight assay and/or SPA assay, repeated experimental runs
[4] = binned activity in either the breaklight or the SPA assay, read-out: DNMT1 BioChemical (pIC50 category) (converted)

SMILES	EC50 [1] [µM]	IC50 (DNMT1; [4]) [µM]	IC50 (DNMT1; breaklight assay and/or SPA assay, repeated experimental runs, read-out: average pIC50 against DNMT1 (converted)) [µM]	DNMT1 BioChemical (pIC50 category) (DNMT1; [2])	average pIC50 against DNMT1 (DNMT1; [3])
CCc1c(C#N)c(SC(C(N)=O)c2ccccc2)nc(N2CCC(C3CCNC3)CC2)c1C#N (stereo not shown) [Example 121, 2-((3,5-Dicyano-4-ethyl-6-(4-(pyrrolidin-3-yl)piperidin-1-yl)pyridin-2-yl)thio)-2-phenylacetamide; 2,2,2-trifluoroacetic acid]	0.316 to 1			D (Category D: ≥6.5)	> 6.5
N#Cc1c(SC(C(N)=O)c2ccccc2)nc(N2CCN(CCCN)CC2)c(C#N)c1C1CC1 (stereo not shown) [Example 124, 2-((6-(4-(3-Aminopropyl)piperazin-1-yl)-3,5-dicyano-4-cyclopropylpyridin-2-yl)thio)-2-phenylacetamide]	1 to 31.6	0.316 to 1			
CCc1c(C#N)c(SC(C(N)=O)c2ccccc2)nc(N2CCC(F)(F)CC2)c1C#N (stereo not shown) [Example 133, 2-((3,5-Dicyano-6-(4,4-difluoropiperidin-1-yl)-4-ethylpyridin-2-yl)thio)-2-phenylacetamide]	1 to 31.6	1 to 31.6	≥ 1		
CN1CCCN(c2nc(SC(C(N)=O)c3ccccc3)c(C#N)c(-c3ccco3)c2C#N)CC1 (stereo not shown) [Example 135, 2-((3,5-dicyano-4-(furan-2-yl)-6-(4-methyl-1,4-diazepan-1-yl)pyridin-2-yl)thio)-2-phenylacetamide]	1 to 31.6	0.316 to 1			
CCc1c(C#N)c(SC(C(N)=O)c2ccccc2)nc(N2CCC(NC(=O)CN)CC2)c1C#N (stereo not shown) [Example 137, 2-Amino-N-(1-(6-((2-amino-2-oxo-1-phenylethyl)thio)-3,5-dicyano-4-ethylpyridin-2-yl)piperidin-4-yl)acetamide, Trifluoroacetic Acid Salt]	0.316 to 1			D (Category D: ≥6.5)	> 6.5
CCc1c(C#N)c(SC(C(N)=O)c2ccccc2)nc(N2CCN(C(=O)C3(N)COC3)CC2)c1C#N (stereo not shown) [Example 139, 2-((6-(4-(3-Aminooxetane-3-carbonyl)piperazin-1-yl)-3,5-dicyano-4-ethylpyridin-2-yl)thio)-2-phenylacetamide, Formic Acid Salt]	0.316 to 1			D (Category D: ≥6.5)	
CCc1c(C#N)c(SC(C(N)=O)c2ccccc2)nc(N2CCC(NC(=O)C3(N)CCOCC3)CC2)c1C#N (stereo not shown) [Example 140, 4-Amino-N-(1-(6-((2-amino-2-oxo-1-phenylethyl)thio)-3,5-dicyano-4-ethylpyridin-2-yl)piperidin-4-yl)tetrahydro-2H-pyran-4-carboxamide, Trifluoroacetic Acid Salt]	< 0.316			D (Category D: ≥6.5)	
CCc1c(C#N)c(SC(C(N)=O)c2ccccc2)nc(N2CCN(C(=O)C3(N)CCOCC3)CC2)c1C#N (stereo not shown) [Example 141, 2-((6-(4-(4-Aminotetrahydro-2H-pyran-4-carbonyl)piperazin-1-yl)-3,5-dicyano-4-ethylpyridin-2-yl)thio)-2-phenylacetamide, Trifluoroacetic Acid Salt]	< 0.316			D (Category D: ≥6.5)	
CCc1c(C#N)c(SC(C(N)=O)c2ccccc2)nc(N(C)CCN)c1C#N (stereo not shown) [Example 144, 2-((6-((2-Aminoethyl)(methyl)amino)-3,5-dicyano-4-ethylpyridin-2-yl)thio)-2-phenylacetamide, Trifluoroacetic Acid Salt]	< 0.316			D (Category D: ≥6.5)	
CCc1c(C#N)c(SC(C(N)=O)c2ccccc2)nc(N2CC(O)C2)c1C#N (stereo not shown) [Example 146, 2-((3,5-Dicyano-4-ethyl-6-(3-hydroxyazetidin-1-yl)pyridin-2-yl)thio)-2-phenylacetamide]	0.316 to 1			D (Category D: ≥6.5)	
CCc1c(C#N)c(SC(C(N)=O)c2ccccc2)nc(N2CCC(NC(=O)C(C)(C)N)CC2)c1C#N (stereo not shown) [Example 148]	< 0.316			D (Category D: ≥6.5)	> 6.5
CCc1c(C#N)c(SC(C(N)=O)c2ccccc2)nc(N2CCC(OCCN)CC2)c1C#N (stereo not shown) [Example 149, 2-((6-(4-(2-Aminoethoxy)piperidin-1-yl)-3,5-dicyano-4-ethylpyridin-2-yl)thio)-2-phenylacetamide, Trifluoroacetic Acid Salt]	< 0.316			D (Category D: ≥6.5)	> 6.5
CCc1c(C#N)c(SC(C(N)=O)c2ccccc2)nc(N2CCC(OP(=O)(O)O)C2)c1C#N (stereo not shown) [Example 150, 1-(6-((2-Amino-2-oxo-1-phenylethyl)thio)-3,5-dicyano-4-ethylpyridin-2-yl)pyrrolidin-3-yl dihydrogen phosphate]	> 31.6	1 to 31.6			
CCc1c(C#N)c(SC(C(N)=O)c2ccccc2)nc(N(C)CCOP(=O)(O)O)c1C#N (stereo not shown) [Example 151, 2-((6-((2-Amino-2-oxo-1-phenylethyl)thio)-3,5-dicyano-4-ethylpyridin-2-yl)(methyl)amino)ethyl dihydrocien phosphate]	> 31.6	1 to 31.6			
CCc1c(C#N)c(SC(C(N)=O)c2ccccc2)nc(N2CC(OP(=O)(O)O)C2)c1C#N (stereo not shown) [Example 152, 1-(6-((2-Amino-2-oxo-1-phenylethyl)thio)-3,5-dicyano-4-ethylpyridin-2-yl)azetidin-3-yl dihydrogen phosphate]	1 to 31.6	1 to 31.6			
CCc1c(C#N)c(SCc2ccc(CNC(C)=O)cc2)nc(N2CCC(N)CC2)c1C#N [Example 156, N-(4-(((6-(4-Aminopiperidin-1-yl)-3,5-dicyano-4-ethylpyridin-2-yl)thio)methyl)benzyl)acetamide, Trifluoroacetic Acid Salt]	0.316 to 1			D (Category D: ≥6.5)	
CCCS(=O)(=O)N1CCN(c2nc(SC(C(N)=O)c3ccccc3)c(C#N)c(CC)c2C#N)CC1 (stereo not shown) [Example 158, 2-((3,5-Dicyano-4-ethyl-6-(4-(propylsulfonyl)piperazin-1-yl)pyridin-2-yl)thio)-2-phenylacetamide]	< 0.316	0.316 to 1			

Continued, in another order:

EC50 [1] [µM]	IC50 (DNMT1; [4]) [µM]	IC50 (DNMT1; breaklight assay and/or SPA assay, repeated experimental runs, read-out: average pIC50 against DNMT1 (converted)) [µM]	SMILES	DNMT1 BioChemical (pIC50 category) (DNMT1; [2])	average pIC50 against DNMT1 (DNMT1; [3])
1 to 31.6	0.316 to 1		CCc1c(C#N)c(S[C@@H](C(N)=O)c2ccccc2)nc(N2CC[C@@H](O)C2)c1C#N [Example 134, (R)-2-((3,5-Dicyano-4-ethyl-6-((R)-3-hydroxypyrrolidin-1-yl)pyridin-2-yl)thio)-2-phenylacetamide]		
0.316 to 1			COc1c(C#N)c(SC(C(N)=O)c2ccccc2)nc(N2CCCN(CCO)CC2)c1C#N (stereo not shown) [Example 142, 2-((3,5-Dicyano-6-(4-(2-hydroxyethyl)-1,4-diazepan-1-yl)-4-methoxypyridin-2-yl)thio)-2-phenylacetamide]	D (Category D: ≥6.5)	
0.316 to 1	0.316 to 1		CCc1c(C#N)c(SC(C(N)=O)c2ccccc2)nc(N(C)CCO)c1C#N (stereo not shown) [Example 147, 2-(3,5-Dicyano-4-ethyl-6-((2-hydroxyethyl)(methyl)amino)pyridin-2-ylthio)-2-phenylacetamide]		
0.316 to 1			CCc1c(C#N)c(SC(C(N)=O)c2ccccc2)nc(N2CCC(OCCOC(=O)[C@@H](N)C(C)C)CC2)c1C#N (stereo partly drawn) [Example 153, (2S)-2-((1-(6-((2-Amino-2-oxo-1-phenylethyl)thio)-3,5-dicyano-4-ethylpyridin-2-yl)piperidin-4-yl)oxy)ethyl 2-amino-3-methylbutanoate]	D (Category D: ≥6.5)	
1 to 31.6	1 to 31.6		CCc1c(C#N)c(SC(C(N)=O)c2ccccc2)nc(N2CCC(OCCOP(=O)(O)O)CC2)c1C#N (stereo not shown) [Example 154, 2-((1-(6-((2-Amino-2-oxo-1-phenylethyl)thio)-3,5-dicyano-4-ethylpyridin-2-yl)piperidin-4-epoxy)ethyldihydrogen phosphate]		
> 31.6	1 to 31.6		CCc1c(C#N)c(SC(C(N)=O)c2ccccc2)nc(N2CCC(OP(=O)(O)O)CC2)c1C#N (stereo not shown) [Example 155, 1-(6-((2-Amino-2-oxo-1-phenylethyl)thio)-3,5-dicyano-4-ethylpyridin-2-yl)piperidin-4-yl dihydrogen phosphate]		
1 to 31.6	1 to 31.6		CCc1c(C#N)c(SC(C(N)=O)C2CCNCC2)nc(N(C)C)c1C#N (stereo not shown) [Example 157, 2-((3,5-dicyano-6-(dimethylamino)-4-ethylpyridin-2-yl)thio)-2-(piperidin-4-yl)acetamide]		
0.316 to 1	1 to 31.6		CCc1c(C#N)c(SC(C(N)=O)c2ccccc2)nc(N2CCN(S(=O)(=O)c3ccccc3)CC2)c1C#N (stereo not shown) [Example 159, 2-((3,5-Dicyano-4-ethyl-6-(4-(phenylsulfonyl)piperazin-1-yl)pyridin-2-yl)thio)-2-phenylacetamide]		
1 to 31.6	1 to 31.6		CCc1c(C#N)c(SC(C(N)=O)c2ccccc2)nc(N2CC[C@@H](O)C2)c1C#N (stereo partly drawn) [Example 160, 2-((3,5-Dicyano-4-ethyl-6-((R)-3-hydroxypyrrolidin-1-yl)pyridin-2-yl)thio)-2-phenylacetamide]		
1 to 31.6	0.316 to 1		CCc1c(C#N)c(SC(C(N)=O)c2ccccc2)nc(N2CCC3(COC3)C2)c1C#N (stereo not shown) [Example 161, 2-((3,5-Dicyano-4-ethyl-6-(2-oxa-6-azaspiro[3.4]octan-6-yl)pyridin-2-yl)thio)-2-phenylacetamide]		
1 to 31.6	1 to 31.6		CCc1c(C#N)c(N[C@@H](C(N)=O)c2ccccc2)nc(N2CCCN(CC)CC2)c1C#N [Example 162, (R)-2-((3,5-Dicyano-4-ethyl-6-(4-ethyl-1,4-diazepan-1-yl)pyridin-2-yl)amino)-2-phenylacetamide]		
